Experiments:
[1] = target: T1, Solute carrier organic anion transporter family member 1B3 (Homo sapiens, UniProt Q9NPD5); conditions: chinese hamster, cho, 10 µM
T1 sequence (Q9NPD5 whole entry): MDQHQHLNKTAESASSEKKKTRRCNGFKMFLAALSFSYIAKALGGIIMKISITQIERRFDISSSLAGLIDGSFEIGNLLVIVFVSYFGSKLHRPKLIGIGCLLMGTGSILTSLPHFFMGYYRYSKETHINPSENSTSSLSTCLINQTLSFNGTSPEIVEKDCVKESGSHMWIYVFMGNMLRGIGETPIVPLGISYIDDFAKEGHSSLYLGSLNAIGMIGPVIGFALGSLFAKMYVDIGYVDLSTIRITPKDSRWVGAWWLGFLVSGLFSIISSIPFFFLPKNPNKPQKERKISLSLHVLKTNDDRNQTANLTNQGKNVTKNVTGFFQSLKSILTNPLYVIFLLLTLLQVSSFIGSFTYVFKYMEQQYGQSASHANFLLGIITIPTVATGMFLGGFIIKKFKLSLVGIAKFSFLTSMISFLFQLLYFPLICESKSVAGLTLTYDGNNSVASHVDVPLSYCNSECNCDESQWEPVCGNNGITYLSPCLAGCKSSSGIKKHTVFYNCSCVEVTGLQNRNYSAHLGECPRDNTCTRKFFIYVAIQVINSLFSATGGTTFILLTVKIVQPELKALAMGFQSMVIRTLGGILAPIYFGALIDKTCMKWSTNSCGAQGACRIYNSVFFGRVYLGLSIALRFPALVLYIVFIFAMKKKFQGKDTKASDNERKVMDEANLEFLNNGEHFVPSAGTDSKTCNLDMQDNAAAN

[2] = target: T2, Solute carrier organic anion transporter family member 1B1 (Homo sapiens, UniProt Q9Y6L6); conditions: chinese hamster, cho, 10 µM
T2 sequence (Q9Y6L6 whole entry): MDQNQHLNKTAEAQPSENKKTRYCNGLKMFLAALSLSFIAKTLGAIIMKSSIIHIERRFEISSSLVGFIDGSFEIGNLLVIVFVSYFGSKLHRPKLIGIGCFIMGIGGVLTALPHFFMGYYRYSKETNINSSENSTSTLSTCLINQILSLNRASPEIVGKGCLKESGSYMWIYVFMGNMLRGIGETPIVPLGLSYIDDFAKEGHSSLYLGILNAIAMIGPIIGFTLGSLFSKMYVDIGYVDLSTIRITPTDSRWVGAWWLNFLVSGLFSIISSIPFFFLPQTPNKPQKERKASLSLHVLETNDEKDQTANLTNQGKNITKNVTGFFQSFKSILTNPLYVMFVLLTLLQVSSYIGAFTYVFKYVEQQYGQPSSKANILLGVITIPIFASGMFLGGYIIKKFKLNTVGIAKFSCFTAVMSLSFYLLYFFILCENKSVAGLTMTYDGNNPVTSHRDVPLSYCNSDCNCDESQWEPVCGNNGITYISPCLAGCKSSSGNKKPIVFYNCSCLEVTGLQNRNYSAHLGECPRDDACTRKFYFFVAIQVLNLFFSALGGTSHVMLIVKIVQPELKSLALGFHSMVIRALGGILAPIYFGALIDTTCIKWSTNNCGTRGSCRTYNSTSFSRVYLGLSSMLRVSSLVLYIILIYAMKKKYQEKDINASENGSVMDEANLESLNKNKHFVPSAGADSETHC

Structure (SMILES)	residual activity [1] [%]	residual activity [2] [%]
CC1(O)CC2C(CC1O)C2(C)C (centres undefined) [3,4-DIHYDROXYCARANE]	98.2	101
CC(=O)O[C@H]1C[C@H](O[C@H]2[C@@H](O)C[C@H](O[C@H]3[C@@H](O)C[C@H](O[C@H]4CC[C@@]5(C)[C@H](CC[C@@H]6[C@@H]5C[C@@H](O)[C@]5(C)[C@@H](C7=CC(=O)OC7)CC[C@]65O)C4)O[C@@H]3C)O[C@@H]2C)O[C@H](C)[C@H]1O[C@@H]1O[C@H](CO)[C@@H](O)[C@H](O)[C@H]1O [LANATOSIDE C]	86.15	102.5
O[C@@H]1C[C@H]2CCC[C@@H](C1)N2Cc1ccccc1 [N-BENZYLTROPAN-4-OL]	88.98	92.31
O=C(O)c1cccnc1C(=O)O [QUINOLINIC ACID]	104.2	103.9
O=C(O)CCNC(=O)c1ccccc1 [BETAMIPRON]	92.61	116.1
CS(=O)(=O)O.OC(CCN1CCCCC1)(c1ccccc1)c1ccccc1 [PRIDINOL METHANESULFONATE]	95.39	95.92
O[C@@H]1[C@@H](O)[C@@H]2OC[C@@H](O2)[C@H]1O	106	105.1
O=C(Cc1cccs1)N[C@@H]1C(=O)N2C(C(=O)[O-])=C(C[n+]3ccccc3)CS[C@H]12 [CEPHALORIDINE]	31.99	14.22
CCOC(=O)c1ccc(N)cc1 [BENZOCAINE]	100.6	129.5
Cc1ncc([N+](=O)[O-])n1CCO [METRONIDAZOLE]	98.27	102.6
CC1(C)C=Cc2c(cc3occ(-c4ccc5c(c4)OCO5)c(=O)c3c2O)O1 [ROBUSTONE]	96.96	102.3
C[C@H](CCC(=O)O)[C@H]1CC[C@H]2[C@@H]3[C@H](O)C[C@@H]4C[C@H](O)CC[C@]4(C)[C@H]3C[C@H](O)[C@]12C [CHOLIC ACID]	75.03	99.52
CC(=O)Oc1ccc(O)cc1 [4-ACETOXYPHENOL]	116.4	136.7
CC[C@H](/C=C/[C@@H](C)[C@H]1CC[C@H]2[C@@H]3CC=C4C[C@@H](O)CC[C@]4(C)[C@H]3CC[C@]12C)C(C)C [STIGMASTEROL]	103.2	110.2
C[C@@H]1O[C@@H](O[C@H]2[C@H](Oc3cc(O)c4c(c3)O[C@H](c3ccc(O)cc3)CC4=O)O[C@H](CO)[C@@H](O)[C@@H]2O)[C@H](O)[C@H](O)[C@H]1O [NARINGIN]	137.8	100.1
COc1ccc(CN(CCN(C)C)c2ccccn2)cc1.O=C(O)/C=C\C(=O)O [PYRILAMINE MALEATE]	101.4	68.75
COP(=S)(OC)Oc1ccc([N+](=O)[O-])cc1 [METHYL PARATHIONE]	100.2	107.9
C=CC1=C(C(=O)O)N2C(=O)[C@@H](NC(=O)/C(=N\O)c3csc(N)n3)[C@H]2SC1	78.64	92.13
COc1ccc2ccc(=O)oc2c1 [HERNIARIN]	104.5	148.3
CC(=O)c1cc2c(cc1O)OC(C)(C)C=C2	88.13	84.54
Cc1ccccc1C(OCCN(C)C)c1ccccc1.O=C(O)CC(O)(CC(=O)O)C(=O)O (centres undefined) [ORPHENADRINE CITRATE]	96.44	87.55
Cc1c(C(N)=O)cc([N+](=O)[O-])cc1[N+](=O)[O-] [DINITOLMIDE]	106.4	98.02
C/C=C1\[C@H]2C=C(C)C[C@]1(N)c1ccc(=O)[nH]c1C2 [HUPERZINE A]	101.3	93.86
CN(C)CCC(c1ccccc1)c1ccccn1.O=C(O)/C=C\C(=O)O (centres undefined) [PHENIRAMINE MALEATE]	103.2	72.53

Structure (SMILES)	residual activity [1] [%]	residual activity [2] [%]
CC[C@@H]1C(=O)OC[C@@H]1Cc1cncn1C.O=[N+]([O-])O [PILOCARPINE NITRATE]	95.87	82.84
Nc1nc2ncc(CNc3ccc(C(=O)N[C@@H](CCC(=O)O)C(=O)O)cc3)nc2c(=O)[nH]1 [FOLIC ACID]	109.7	98.4
CC(=O)O[C@H]1CC[C@@]2(C)C(=CC[C@H]3[C@@H]4CC[C@H]([C@H](C)CCCC(C)C)[C@@]4(C)CC[C@@H]32)C1	102.8	89.8
CC(C)C(=O)Nc1ccc([N+](=O)[O-])c(C(F)(F)F)c1 [FLUTAMIDE]	133.6	130.9
C[C@@H]1CC[C@@]2(OC1)O[C@H]1C[C@H]3[C@@H]4CC[C@H]5C[C@@H](O)CC[C@]5(C)[C@H]4CC[C@]3(C)[C@H]1[C@@H]2C [TIGOGENIN]	106.8	97
CC(=O)NCCc1c[nH]c2ccc(O)cc12 [ACETYLSEROTONIN]	91.29	100.7
CC1=C(/C=C/C(C)=C/C=C/C(C)=C/CO)C(C)(C)CCC1 [RETINOL]	31.96	18.99
CC(=O)[C@H]1CC[C@H]2[C@@H]3CC(=O)C4=CC(=O)CC[C@]4(C)[C@H]3CC[C@]12C	75.51	38.54
COP(=O)(OC)OC(Br)C(Cl)(Cl)Br (centres undefined) [NALED]	110	82.68
Nc1ccc(S(=O)(=O)c2ccc(N)cc2)cc1 [DAPSONE]	84.17	78.21
CO[C@H]1[C@H](O)[C@H](O[C@H]2CC[C@@]3(C=O)[C@H](CC[C@@H]4[C@@H]3CC[C@]3(C)[C@@H](C5=CC(=O)OC5)CC[C@]43O)C2)O[C@@H](C)[C@@H]1O [PERUVOSIDE]	112.7	62.43
COC(=O)[C@H](O)[C@H]1C(C)(C)[C@H](OC(C)=O)[C@@H]2CC3=C4CC(=O)O[C@@H](c5ccoc5)[C@]4(C)CC[C@@H]3[C@@]1(C)C2=O [SWIETENOLIDE-3-ACETATE]	66.25	54.05
CS(=O)(=O)Nc1ccc([N+](=O)[O-])cc1Oc1ccccc1 [NIMESULIDE]	58.26	82.48
COc1cc([C@@H]2c3cc4c(c(O)c3C[C@H]3COC(=O)[C@@H]32)OCO4)cc(OC)c1OC [BETA-PELTATIN A]	101.7	78.87
CN1CCCN=C1/C=C/c1cccs1.O=C(O)c1cc2ccccc2c(Cc2c(O)c(C(=O)O)cc3ccccc23)c1O [PYRANTEL PAMOATE]	34.84	31.41
CCc1cn([C@H]2C[C@H](O)[C@@H](CO)O2)c(=O)[nH]c1=O [EDOXUDINE]	109.7	92.48
CCOc1cccc(C(=O)c2ccc(O)c(O)c2O)c1	108.6	134.3
COc1ccc2c(c1)OC/C(=C\c1ccc(OC)c(O)c1)C2=O [SAPPANONE A DIMETHYL ETHER]	136.1	166.6
CCOc1ccc(NC(C)=O)cc1 [PHENACETIN]	98.3	55.67
NNCCc1ccccc1.O=S(=O)(O)O [PHENELZINE SULFATE]	110.5	91.37
Cc1ccc(O)cc1 [p-CRESOL]	101.1	115
O=C(O)CCCC[C@@H]1SC[C@@H]2NC(=O)N[C@@H]21 [BIOTIN]	96.7	93.06
COc1ccc(-c2cc(C(F)F)nn2-c2ccc(S(N)(=O)=O)cc2)cc1F [DERACOXIB]	98.95	127.8

— ChEMBL document CHEMBL3039007, “Structure-based identification of OATP1B1/3 inhibitors” (Mol Pharmacol, 2013)
